# Data as given in US12454525B2, “IL4I1 inhibitors and methods of use” (Merck Sharp & Dohme LLC, priority 2020, dated 2025).
# Target: T1, recombinant IL4I1 (Homo sapiens, UniProt Q96RQ9)
# T1 construct: purchased R&D Systems 5684-AO-020
# T1 sequence (Q96RQ9 22-567): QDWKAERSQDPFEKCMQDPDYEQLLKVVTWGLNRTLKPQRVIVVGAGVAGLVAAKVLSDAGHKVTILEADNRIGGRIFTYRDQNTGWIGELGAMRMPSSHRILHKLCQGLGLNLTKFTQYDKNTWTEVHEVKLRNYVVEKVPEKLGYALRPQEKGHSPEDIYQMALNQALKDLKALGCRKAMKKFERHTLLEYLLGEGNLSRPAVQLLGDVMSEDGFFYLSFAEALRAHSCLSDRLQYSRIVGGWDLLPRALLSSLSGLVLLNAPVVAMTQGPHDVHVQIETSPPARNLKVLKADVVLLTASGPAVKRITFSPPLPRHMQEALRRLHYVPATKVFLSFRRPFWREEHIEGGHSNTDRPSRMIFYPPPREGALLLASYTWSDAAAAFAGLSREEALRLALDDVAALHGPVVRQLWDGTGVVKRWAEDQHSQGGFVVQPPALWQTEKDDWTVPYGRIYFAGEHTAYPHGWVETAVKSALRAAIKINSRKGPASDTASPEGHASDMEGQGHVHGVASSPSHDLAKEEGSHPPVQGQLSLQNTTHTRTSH
# Test: IL4I1 Enzymatic Assay (Amplex Red/HRP coupled H2O2 detection)
# Format: biochemical
# Settings: 240 min; four-hour pre-incubation with compound; 1 nM IL4I1, 1 mM each Phe/Tyr/Trp; ten-point titration; fluorescence readout; read-out: Potency EC50 (nM) (240 min)
# Method in brief: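 Recombinant IL4I1 at 1 nM final, pre-incubated 4 h with compound (0.1% DMSO) at ambient temperature in 50 mM Hepes pH 7.0, 0.005% Tween20; 1 mM each Phe/Tyr/Trp, 120 min, H2O2 read via Amplex Red/HRP fluorescence (544/590 nm). EC50 from ten-point four-parameter fit.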
row,Structure (SMILES),EC50 [nM]
1,"O=C1CC2(CC2)CN1Cc1ccc(Cn2c(=O)[nH]c3ccccc32)cc1 [Example 22, 1-({4-[(6-oxo-5-azaspiro[2.4]heptan-5-yl)methyl]phenyl}methyl)-1,3-dihydro-2H-benzimidazol-2-one]",8
2,"O=C1CCCN1Cc1ccc(Cn2c(=O)[nH]c3ccccc32)c(F)c1 [Example 8, 1-({2-fluoro-4-[(2-oxopyrrolidin-1-yl)methyl]phenyl}methyl)-1,3-dihydro-2H-benzimidazol-2-one]",11
3,"O=c1[nH]c2ccccc2n1CC1CCN(c2ccccn2)CC1 [Example 115, 1-((1-(pyridin-2-yl)piperidin-4-yl)methyl)-1,3-dihydro-2H-benzo[d]imidazol-2-one]",1300
4,"CS(=O)(=O)NCc1sc(Cn2c(=O)[nH]c3ccccc32)cc1Cl [Example 39, N-((3-chloro-5-((2-oxo-2,3-dihydro-1H-benzo[d]imidazol-1-yl)methyl)thiophen-2-yl)methyl)methanesulfonamide]",5
5,"CC(=O)NCc1ccc(Cn2c(=O)[nH]c3ccc(Cl)cc32)cc1 [Example 64, N-(4-((6-chloro-2-oxo-2,3-dihydro-1H-benzo[d]imidazol-1-yl)methyl)benzyl)acetamide]",56
6,"O=c1[nH]c2ccccc2n1Cc1ccc(Cc2nnco2)cc1 [Example 3, 1-(4-((1,3,4-oxadiazol-2-yl)methyl)benzyl)-1,3-dihydro-2H-benzo[d]imidazol-2-one]",53
7,"CNC(=O)c1cc(Cn2c(=O)[nH]c3ccccc32)ccc1OC [Example 17, 2-methoxy-N-methyl-5-((2-oxo-2,3-dihydro-1H-benzo[d]imidazol-1-yl)methyl)benzamide]",12
8,"O=C1CCCN1Cc1ccc(Cn2c(=O)[nH]c3ccccc32)cc1F [Example 9, 1-({3-fluoro-4-[(2-oxopyrrolidin-1-yl)methyl]phenyl}methyl)-1,3-dihydro-2H-benzimidazol-2-one]",16

# More lines, in order of falling EC50, values ahead:
row,EC50 [nM],Structure (SMILES)
1,1600,"CN(C)C(=O)Cc1ccc(Cn2c(=O)[nH]c3ccccc32)nc1 [Example 37, N,N-dimethyl-2-(6-((2-oxo-2,3-dihydro-1H-benzo[d]imidazol-1-yl)methyl)pyridin-3-yl)acetamide]"
2,24,"CC[C@@H](NC(C)=O)c1ccc(Cn2c(=O)[nH]c3ccccc32)cc1 [Example 16, (R)-N-(1-(4-((2-oxo-2,3-dihydro-1H-benzo[d]imidazol-1-yl)methyl)phenyl)propyl)acetamide]"
3,15,"COc1cc(CNC(C)=O)ccc1Cn1c(=O)[nH]c2ccccc21 [Example 5, N-(3-methoxy-4-((2-oxo-2,3-dihydro-1H-benzo[d]imidazol-1-yl)methyl)benzyl)acetamide]"
4,13,"CC(=O)NCc1ccc(Cn2c(=O)[nH]c3ccccc32)cc1Cl [Example 44, N-(2-chloro-4-((2-oxo-2,3-dihydro-1H-benzo[d]imidazol-1-yl)methyl)benzyl)acetamide]"
5,8,"O=C(c1cccc(Cn2c(=O)[nH]c3ccccc32)c1)N1CCC1 [Example 102, 1-(3-(azetidine-1-carbonyl)benzyl)-1,3-dihydro-2H-benzo[d]imidazol-2-one]"
6,7,"O=c1[nH]c2ccccc2n1Cc1ccc(CN2CCOCS2(=O)=O)cc1 [Example 20, 1-(4-((3,3-dioxido-1,3,4-oxathiazinan-4-yl)methyl)benzyl)-1,3-dihydro-2H-benzo[d]imidazol-2-one]"
7,6,"CS(=O)(=O)NCc1ccc(Cn2c(=O)n(C(F)F)c3ccccc32)cc1 [Example 77, N-(4-((3-(difluoromethyl)-2-oxo-2,3-dihydro-1H-benzo[d]imidazol-1-yl)methyl)benzyl)methanesulfonamide]"
8,6,"CC(=O)NCc1ccc(Cn2c(=O)[nH]c3ccccc32)cc1 [Example 11, N-(4-((2-oxo-2,3-dihydro-1H-benzo[d]imidazol-1-yl)methyl)benzyl)acetamide]"
9,6,"CS(=O)(=O)NCc1ccc(Cn2c(=O)[nH]c3ccccc32)s1 [Example 6, N-((5-((2-oxo-2,3-dihydro-1H-benzo[d]imidazol-1-yl)methyl)thiophen-2-yl)methyl)methanesulfonamide]"
